From patent US8163789B2, “Selective and dual-action p53/MDM2/MDM4 antagonists” (University of Pittsburgh—of the Commonwealth System of …, priority 2007, dated 2012)

test system: HCT116 cells; test: GI50 against HCT116 cells in culture; type: cell-based; settings: Homo sapiens, HCT-116, imidazole scaffold, Table 2
Method: A second approach for increasing affinity, entails introducing substituents in the 2-position of the imidazole ring to gain additional van der Waals interaction and even water solubility. A substituent in the 2-position would mimic the interactions of the Leu (FSDLWKLL) in p53, which contributes additional van der Waals interactions in addition to FWL. Optimization of compounds that belong to this family was carried out as shown in Scheme 1. Table 2 lists representative analogs that were synthesized with their GI50 values against HCT116 cells in culture. The chemistry to accomplish substitution at position-2 of the immidazole ring would involve generation of the carbanion using LDA and subsequent alkylation with iminium salts or other alkylating agents.

SMILES	GI50 [µM]
CN(C)Cc1nc(-c2ccc(Cl)cc2)c(-c2ccc(Cl)cc2)n1CC1CC1	~20
Clc1ccc(-c2ncn(CC3CC3)c2-c2c[nH]c3ccccc23)cc1	~35
Clc1ccc2c(-c3c(-c4ccc(Cl)c(Cl)c4)ncn3CC3CC3)c[nH]c2c1	~10
C[C@H](c1ccc(Cl)cc1)n1cnc(-c2ccc(Cl)cc2)c1-c1cc2ccc(Cl)cc2[nH]1	~20
Clc1ccc2c(-c3c(-c4ccc5c(c4)OCO5)ncn3CC3CC3)c[nH]c2c1	~1
CC(c1ccc(Cl)cc1)n1cnc(-c2ccc(Cl)cc2)c1-c1cc2ccc(Cl)cc2[nH]1 (stereo not shown)	~30
CC(C)(C)OC(=O)n1cc(-c2c(-c3ccc(Cl)cc3)ncn2CC2CC2)c2ccc(Cl)cc21	~50
Clc1cccc(Cc2ncn(CC3CC3)c2-c2c[nH]c3ccccc23)c1	~25
Clc1ccc(-c2ncn(CC3CC3)c2-c2ccc(Cl)cc2)cc1	~10
Fc1cc(Cl)ccc1-c1c(-c2ccc(Cl)cc2)ncn1Cc1ccccc1	~20
CC(c1cccc2ccccc12)n1cnc(-c2ccc(Cl)cc2)c1-c1cc2ccc(Cl)cc2[nH]1 (stereo not shown)	~5
Clc1ccc(-c2ncn(CC3CC3)c2-c2c[nH]c3cc(Cl)ccc23)cc1	~40
Clc1ccc(-c2ncn(CC3CC3)c2-c2cc3ccc(Cl)cc3[nH]2)cc1	~40
C[C@@H](c1ccc(Cl)cc1)n1cnc(-c2ccc(Cl)cc2)c1-c1cc2ccc(Cl)cc2[nH]1	~20

molecular target: T1, MDM4 (Homo sapiens, UniProt O15151); test: NMR-based binding assay, MDM4; settings: imidazolidine scaffold, Table 3
T1 sequence (O15151 1-490): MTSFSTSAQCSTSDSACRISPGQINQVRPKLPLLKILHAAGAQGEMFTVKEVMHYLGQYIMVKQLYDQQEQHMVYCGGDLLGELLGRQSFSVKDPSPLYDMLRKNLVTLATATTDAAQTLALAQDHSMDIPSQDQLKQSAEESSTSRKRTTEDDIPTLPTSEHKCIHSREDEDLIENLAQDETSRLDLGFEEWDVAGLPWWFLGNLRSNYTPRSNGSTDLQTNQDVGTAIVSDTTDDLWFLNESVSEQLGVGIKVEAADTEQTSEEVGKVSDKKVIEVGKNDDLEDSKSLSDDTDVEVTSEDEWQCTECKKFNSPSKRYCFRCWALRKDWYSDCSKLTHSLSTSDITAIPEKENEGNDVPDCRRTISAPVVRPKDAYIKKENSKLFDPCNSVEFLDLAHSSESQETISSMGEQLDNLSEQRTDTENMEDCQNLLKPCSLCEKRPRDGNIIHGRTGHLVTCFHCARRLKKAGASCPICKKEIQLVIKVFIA
Method: (§1) In one of its aspects, the present invention provides a method for generating and screening virtual libraries based on 40 different MCRs having the indole fragment. The inventive method comprises docking individual molecules from the virtual library into a high resolution structure of the MDM2 protein. Docking is carried out by maintaining the same positional constraints on the indole ring of the docked molecule to those for the indole side chain in the high resolution X-ray structure of MDM2-p53 peptide. The compounds identified from docking experiments as potential inhibitors of MDM2-p53 interaction are then synthesized and tested for the inhibitory activity using an NMR-based binding assay. […] A similar strategy was used to identify and select compounds that could potentially be used as inhibitors for disrupting MDM4-p53 interaction.
The compounds identified using MCR were then screened for the ability to bind MDM2 or MDM4 (KA) (primary assay). The molecules identified as binders of MDM2 or MDM4 by the primary assay are subsequently tested for their ability to disrupt the MDM2/p53-peptide complex (KD) in a secondary assay. Based on the results from the primary and secondary assays, further downstream assays involving screening using various cell lines (PC3, A549, MDAMB231) and determination of the growth inhibition constants may be performed for a select sub-set of molecules. […]

SMILES	Ki [µM]
COC(=O)C1(c2ccccc2)N=CN(Cc2cccc(N)c2)C1c1ccc(Cl)cc1 (stereo not shown)	~5

molecular target: MDM2 (Homo sapiens, UniProt Q00987); test: NMR-based binding assay, MDM2; settings: imidazole scaffold, Table 2
Method: as §1
Such an NMR-based screen has many advantages. For example, this screening method allows for the rapid determination of an approximate KA for the small molecule inhibitors, with the possibility of obtaining a more accurate KA value at a later time by titrating the p53-MDM2 complex using increasing concentrations of the inhibitor of interest. A second advantage of using this technique is that it allows identification of the binding site of the small molecule in the target protein by investigating the chemical shift perturbations that occur on binding. This information can then be used to further refine the chemical scaffold with an aim towards improving the affinity of the molecule for its target. Finally, NMR-based screening yields valuable information about promiscuous inhibitors which act as false positives by precipitating the target protein through hydrophobic effects. This information is not available when classical screening approaches such as fluorescence polarization or ELISA type assays are used for screening.
The compounds identified using MCR were then screened for the ability to bind MDM2 or MDM4 (KA) (primary assay). The molecules identified as binders of MDM2 or MDM4 by the primary assay are subsequently tested for their ability to disrupt the MDM2/p53-peptide complex (KD) in a secondary assay. Based on the results from the primary and secondary assays, further downstream assays involving screening using various cell lines (PC3, A549, MDAMB231) and determination of the growth inhibition constants may be performed for a select sub-set of molecules. Western blot analysis of certain compounds is performed to determine p53, MDM2, and p21 content.

Chain of MDM2 (Q00987 whole entry): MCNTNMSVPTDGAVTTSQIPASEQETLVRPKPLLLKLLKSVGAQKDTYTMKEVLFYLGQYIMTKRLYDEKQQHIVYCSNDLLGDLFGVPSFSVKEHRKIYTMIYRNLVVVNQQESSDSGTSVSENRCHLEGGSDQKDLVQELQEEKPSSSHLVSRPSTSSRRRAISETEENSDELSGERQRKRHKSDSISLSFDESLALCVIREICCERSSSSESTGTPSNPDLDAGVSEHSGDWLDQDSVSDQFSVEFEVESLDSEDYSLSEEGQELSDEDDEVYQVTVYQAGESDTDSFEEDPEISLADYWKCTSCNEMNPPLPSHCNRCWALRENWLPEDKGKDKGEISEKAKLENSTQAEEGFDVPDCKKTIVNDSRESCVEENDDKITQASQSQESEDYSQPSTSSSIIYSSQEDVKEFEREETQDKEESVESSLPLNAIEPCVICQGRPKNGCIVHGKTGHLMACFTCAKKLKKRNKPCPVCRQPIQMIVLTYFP

SMILES	Ki [µM]
Clc1ccc(-c2ncn(CC3CC3)c2-c2ccc(Cl)cc2)cc1	~50

same assay, conditions: imidazolidine scaffold, Table 3

SMILES	Ki [µM]
COC(=O)C1(c2ccccc2)N=CN(CC2CC2)C1c1ccc(Cl)cc1F (stereo not shown) [drawing 45]	~2
O=C(O)C1(c2ccccc2)N=CN(CC2CC2)C1c1ccc(Cl)cc1 (stereo not shown)	~50
COC(=O)C1(CC(C)C)N=CN(CC2CC2)C1c1ccc(Cl)cc1 (stereo not shown)	~1
O=C(NCCN1CCOCC1)C1(c2ccccc2)N=CN(CC2CC2)C1c1ccc(Cl)cc1 (stereo not shown)	1
COC(=O)C1(c2ccccc2)N=CN(CC(C)C)C1c1ccc(Cl)cc1 (stereo not shown)	~10
COC(=O)C1(CCSC)N=CN(CC2CC2)C1c1ccc(Br)cc1 (stereo not shown)	~20
COC(=O)C1(C)N=CN(CC2CC2)C1c1cc2ccc(Cl)cc2[nH]1 (stereo not shown)	~50
COC(=O)C1(C)N=CN(CC2CC2)C1c1ccc(Cl)cc1 (stereo not shown)	~2
COC(=O)C1(c2ccc(Cl)cc2)N=CN(CC2CC2)C1c1ccc(Cl)cc1 (stereo not shown) [drawing 67]	~40
COC(=O)C1(c2ccc(Cl)cc2)N=CN(CC2CC2)C1c1cc2ccc(Cl)cc2[nH]1 (stereo not shown)	~50
COC(=O)C12N=CN(CC3CC3)C1c1ccc(Cl)cc1C2C (stereo not shown)	~2
COC(=O)C1(c2ccccc2)N=CN(C2CCCCC2)C1c1ccc(Cl)cc1 (stereo not shown)	~20
COC(=O)C1(c2ccccc2)N=CN(CC2CC2)C1c1c[nH]c2ccccc12 (stereo not shown)	~30
COC(=O)C1(c2ccccc2)N=CN(Cc2cccnc2)C1c1ccc(Cl)cc1 (stereo not shown)	~5
COC(=O)C1(C)N=CN(CC2CC2)C1c1c[nH]c2ccccc12 (stereo not shown)	~50
COC(=O)C1(CCSC)N=CN(CC2CC2)C1c1ccc(Cl)cc1 (stereo not shown)	~10
COC(=O)C1(c2ccccc2)N=CN(CC2CCCNC2)C1c1ccc(Cl)cc1 (stereo not shown)	~20
COC(=O)C1(c2ccc(Cl)cc2)N=CN(CC2CC2)C1c1ccc(Cl)cc1 (stereo not shown) [drawing 44]	~5
O=C(N1CCNCC1)C1(c2ccccc2)N=CN(CC2CC2)C1c1ccc(Cl)cc1 (stereo not shown)	~1
O=C(NCCCN1CCOCC1)C1(c2ccccc2)N=CN(CC2CC2)C1c1ccc(Cl)cc1 (stereo not shown)	1
COC(=O)C1(c2ccccc2)N=CN(CC2CC2)C1c1ccc(Br)cc1 (stereo not shown)	~6
COC(=O)C1(c2ccccc2)N=CN(CC2CC2)C1c1cc2ccc(Cl)cc2[nH]1 (stereo not shown)	~40
COC(=O)C1(c2ccccc2)N=CN(C(C)c2ccc(Cl)cc2)C1c1ccc(Cl)cc1 (stereo not shown)	~20
COC(=O)C1(c2ccccc2)N=CN(C2CCNCC2)C1c1ccc(Cl)cc1 (stereo not shown)	~50
COC(=O)C1(c2ccccc2)N=CN(Cc2cccc(N)c2)C1c1ccc(Cl)cc1 (stereo not shown)	~5
COC(=O)C1(c2ccccc2)N=CN(CC2CC2)C1c1ccc(Cl)cc1F (stereo not shown) [drawing 58]	~2
COC(=O)C1(c2ccccc2)N=CN(c2ccc(Cl)cc2)C1c1ccc(Cl)cc1 (stereo not shown)	~5
